Laboratory results: US8138191B2, “Inhibitor compounds and cancer treatment methods” (Critical Outcome Technologies Inc., priority 2007, dated 2012)
Read-outs that look alike come from different tables or passages of the source.

Experiments:
[1] = system: A2780 human ovarian tumor xenograft; assay: A2780 human ovarian tumor xenograft model; conditions: for Day 17 CS (Complete Tumor Shrinkage): N 10
[2] = target: CYP2D6 (Homo sapiens, UniProt P10635); assay: in vitro; format: in vitro ADME; conditions: both sexes
Sequence of CYP2D6 (P10635 whole entry): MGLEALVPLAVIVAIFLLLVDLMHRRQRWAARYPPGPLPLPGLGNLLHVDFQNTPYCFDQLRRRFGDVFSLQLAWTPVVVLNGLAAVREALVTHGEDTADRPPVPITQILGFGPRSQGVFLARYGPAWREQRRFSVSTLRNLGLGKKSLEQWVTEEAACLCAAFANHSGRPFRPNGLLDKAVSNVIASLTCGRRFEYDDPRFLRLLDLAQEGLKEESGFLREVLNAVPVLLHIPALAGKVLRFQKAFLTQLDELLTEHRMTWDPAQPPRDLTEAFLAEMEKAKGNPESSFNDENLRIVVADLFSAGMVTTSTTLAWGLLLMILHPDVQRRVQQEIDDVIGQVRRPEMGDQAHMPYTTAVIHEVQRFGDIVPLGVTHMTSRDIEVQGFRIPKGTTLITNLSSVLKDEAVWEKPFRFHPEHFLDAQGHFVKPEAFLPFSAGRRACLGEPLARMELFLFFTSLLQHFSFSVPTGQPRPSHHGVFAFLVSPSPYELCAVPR
Protocol: The final incubation volume was 200 μl. […] Peak areas corresponding to metabolite were recorded.

[3] = system: total Akt protein in DMS-114 cells; assay: Total Akt by western blot analysis, DMS-114; format: cell-based, human; conditions: DMS-114, 250 nM, after 24 hrs
Protocol: Cell viability was determined at 24, 48, and 96 hrs by the trypan exclusion method. Whole cell lysates were prepared using standard procedures and fifty micrograms of lysate protein was separated on SDS-PAGE gels and analyzed by western blotting.
Cell viability was determined at 24, 48, and 96 h by the trypan exclusion method. Whole cell lysates were prepared using standard procedures and 50 μg of lysate protein was separated on SDS-PAGE gels and analyzed by western blotting.

[4] = target: T1, CYP2B6 (Homo sapiens, UniProt P20813); assay: in vitro; conditions: both
T1 sequence (P20813 1-491): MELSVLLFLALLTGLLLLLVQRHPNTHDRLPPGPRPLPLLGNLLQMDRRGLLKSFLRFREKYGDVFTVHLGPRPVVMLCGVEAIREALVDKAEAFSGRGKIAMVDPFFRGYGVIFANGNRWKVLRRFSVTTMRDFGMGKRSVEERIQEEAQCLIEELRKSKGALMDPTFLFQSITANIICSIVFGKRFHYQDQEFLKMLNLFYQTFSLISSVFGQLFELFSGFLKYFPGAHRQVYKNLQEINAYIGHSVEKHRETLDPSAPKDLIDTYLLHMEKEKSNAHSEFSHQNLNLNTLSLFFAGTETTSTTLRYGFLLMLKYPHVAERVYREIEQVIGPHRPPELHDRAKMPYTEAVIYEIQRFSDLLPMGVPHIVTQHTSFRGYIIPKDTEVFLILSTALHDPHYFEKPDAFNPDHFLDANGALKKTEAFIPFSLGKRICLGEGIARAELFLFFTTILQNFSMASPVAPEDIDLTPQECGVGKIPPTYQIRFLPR

[5] = system: SHP77 cells; assay: siRNA target knock-down with COTI-219, cell viability by trypan blue, SHP77; format: cell-based, human; conditions: SHP77, 500 nM, 48 h
Protocol: In brief, cells DMS114 and SHP77 cells were transfected with gene specific siRNA in the presence or absence of COTI-219 and cell viability determined after 24 to 48 h post-incubation using the trypan blue exclusion method.
Cell cultures were maintained under regular tissue culture conditions and passaged 1-2 times a week as recommended by ATCC. With the exception of the siRNA for Bim (Signal Silence Bim siRNA kit #6460 from Cell Signaling), all other siRNA reagents for gene knock-down experiments was obtained from Ambion (Silencer Negative Control #1 siRNA #AM4611, CDK2 Silencer Select #s204, HRAS Silencer Select #s807, Protein kinase C alpha Silencer Validated #301, MAPK3/Erk Silencer Pre-designed #214749, EGFR Silencer Select #s563, and ERBB2 Silencer Select #s611). […] The transfection method required optimization such that a knock-down of the target gene greater than ˜75% was achieved and confirmed by western blot analyses. […] Following an optimal knock-down level at >75%, 2×10^5 cells were incubated with 500 nM COTI-219 and number of viable cells was measured at 48 h.
Cell viability assays were performed 24 to 48 h following incubation with COTI-219 by the trypan blue exclusion method using a Beckman-Coulter Vi-CELL XR 2.03 automated cell counter. Routine laboratory methods were employed for the production of cellular lysates, protein quantitation, SDS-PAGE and western blotting. […]

[6] = system: cleaved caspases 3 and 9; assay: Cleaved caspase 3 and 9 by western blot after COTI-219; format: cell-based, human; conditions: 12 h incubation, dose-dependent increase
Protocol: Cell viability assays were performed 24 to 48 h following incubation with COTI-219 by the trypan blue exclusion method using a Beckman-Coulter Vi-CELL XR 2.03 automated cell counter. Routine laboratory methods were employed for the production of cellular lysates, protein quantitation, SDS-PAGE and western blotting. All antibodies were obtained from Cell Signaling (Erk1/2 #4695, Ras #3965, CDK2 #2546, PKCalpha #2056, EGFR #2232, and ERBB2 #2165).
In lung cancer, oncogenic Ras exerts anti-apoptotic effects, in part by up-regulating the multi-functional PKB/AKT kinase. Activated PKB/AKT phosphorylates and inhibits caspase 9 activation. In order to determine whether caspase 9 activation mediates COTI-219 apoptosis, cells were incubated for 12 h with vehicle or increasing concentrations of COTI-219 and the expression levels of cleaved caspases 3 and 9 were determined. There was a dose-dependent increase in the levels of both cleaved caspases, peaking at 0.5 μM of COTI-219. Beyond this concentration, activated caspase 9 was not detectable and there was a decline in cleaved caspase 3.

Compound	Day 17 Mean tumor weight ([1]; COTI-2 12.5 mg/kg IV)	Day 17 TGI ([1]; COTI-2 12.5 mg/kg IV) [%]	Maximum weight loss (%) (Day #) ([1]; COTI-2 12.5 mg/kg IV, Day 11)	Day 17 CS (Complete Tumor Shrinkage) ([1]; COTI-2 12.5 mg/kg IV)	Day 17 Mean tumor weight ([1]; COTI-2 50.0 mg/kg IV)	Day 17 TGI ([1]; COTI-2 50.0 mg/kg IV) [%]	Maximum weight loss (%) (Day #) ([1]; COTI-2 50.0 mg/kg IV, Day 8)	Day 17 CS (Complete Tumor Shrinkage) ([1]; COTI-2 50.0 mg/kg IV)	inhibition at 15 min, 10 µM ([2]; human liver microsomes, pH 7.4, probe dextromethorphan (10 µM), CYP2D6, HLM, dextromethorphan substrate, 1.0E−05 M, read-out: % Inhibition of Control Values) [%]	inhibition at 15 min, 10 µM ([2]; liver microsomes, pH 7.4, probe dextromethorphan, CYP2D6, 10 μM, read-out: percent inhibition) [%]	total Akt protein [3]	inhibition at 15 min, 10 µM ([4]; human liver microsomes, pH 7.4, probe bupropion (10 µM)) [%]	inhibition at 15 min, 10 µM ([4]; liver microsomes, pH 7.4, probe bupropion) [%]	target knock-downs suppressing the apoptotic/cell growth inhibitory effect of COTI-219 [5]	concentration at which levels of cleaved caspases 3 and 9 peak [6] [µM]
S=C(N/N=C1/CCCc2cccnc21)N1CCN(c2ccccn2)CC1 [COTI-2]	1,699.2 ± 241.4 mg	22.04	10.35% (Day 11)	0	1,622.8 ± 403.0 mg	25.76	8.65% (Day 8)	0	2	< 50	decreased	5	< 50	–	–
CN1CCN(C(=S)NN=C2c3ncccc3-c3cccnc32)CC1 [COTI-219]	–	–	–	–	–	–	–	–	–	–	–	–	–	not only Ras but Erbb2, Erk1, and PKC-α all suppressed	0.5
